{
  "source": "patent US20260364078A1",
  "about": "“PURINE NUCLEOSIDE PHOSPHORYLASE INHIBITORS FOR THE TREATMENT OF METABOLIC SYNDROME AND ASSOCIATED CONDITIONS” (METASHAPE PHARMA AG, priority 2022, published 2026)",
  "key": {"[1]": {"experiment": "Drying stability (vacuum, RT/50/70 °C)", "format": "physicochemical"}, "[2]": {"experiment": "Physicochemical stability (2-week, open conditions)"}, "[3]": {"experiment": "Polymorph form conversion / solid-state stability (XRPD, VT-XRPD)", "format": "physicochemical", "details": "polymorph screening overall", "procedure": "To confirm stability and suitability of Ulodesine hemi-glutarate Type A, a polymorph screening was conducted to search for other potential crystal forms and identify the most suitable form to confirm the previous findings.\nUsing glutarate Type A as starting material, a polymorph screening was conducted under 100 conditions through methods of anti-solvent addition, solid vapor diffusion, liquid vapor diffusion, slow evaporation, polymer-induced crystallization, temperature cycling, slurry at room temperature (RT)/50 °C and slow cooling.\nX-ray powder diffraction data at variable temperature was collected at on a Malvern Panalytical Empyrean diffractometer. Flat a few milligrams of sample on a sample holder and compact it by a glass slide with protection of a piece of weighting paper. An X-ray generator of 1800 W was employed at 45 kV and 40 mA and was equipped with an X-ray tube of Cu (Kα), with the Kα2/Kα1 intensity ratio of 0.50 (1.54439 Å/1.5406 Å). Data were collected from 3° to […] (2θ) at a step size of 0.026° (2θ) with time per step of 49.7 s.\nGlutarate Type B (E0007-A01-06) was only observed by heating glutarate Type A to 130 °C using X-ray powder diffractometer at variable temperature mode (VT-XRPD).\nBased on the characterization results, glutarate Type C was speculated as a channel hydrate (the water molecules of a channel hydrate lie next to other water molecules of adjoining unit cell, forming channels through the crystals).\nType C was re-prepared at 100 mg in triplicate via temperature cycling slurry in anisole/MeOH (1:2, v/v)."}, "[4]": {"experiment": "Approximate solubility of starting material at RT", "format": "physicochemical", "details": "RT (~27 °C)", "procedure": "The solubility of starting material (E0007-A01-02) was estimated at RT (~27 °C).\nSpecifically, approximate 2 mg of solid was added into an HPLC glass vial. The solvents below were then added stepwise ([…]) into the vials until the solids were dissolved or a total volume of 1.0 mL was reached.\nThe solubility data were used to guide the solvent selection in polymorph screening. Approximate solubility of starting material (E0007-A01-02) at RT: […]"}, "[5]": {"experiment": "Kinetic solubility (37 °C/24 h)", "format": "physicochemical"}, "[6]": {"experiment": "Physicochemical stability (2-week, open conditions)", "details": "for remaining at 336 h: 2-week; for remaining at 336 h / remaining at 240 h: read-out: Purity; for remaining at 240 h: 10-day", "description": "SHIMADZU LC-20AD was employed to detect the chemical purity HPLC method for purity test"}, "[7]": {"experiment": "Hygroscopicity by DVS at 25 °C", "format": "physicochemical", "procedure": "To understand the hygroscopicity of glutarate type A, DVS was employed to measure the mass change as a function of relative humidity at 25 °C (FIG. 14).\nDynamic vapour sorption was performed with ADVENTURE series DVS and Intrinsic-1 DVS at 25 °C under nitrogen blow. Approximately 30 milligrams of material were used. Anhydrate was analyzed using methods below: 0% RH to 95% RH to 0% RH at 10% RH (5% RH from 90% RH to 95% RH to 90% RH). After equilibrium at ambient conditions (50% RH), the hydrate sample was analyzed using method below: 1. Ambient relative humidity to 95% RH at 10% RH (5% from 90% RH to 95% RH). 2. 95% RH to 0% RH at 10% RH (5% from 95% RH to 90% RH). 3. 0% RH to 95% RH at 10% RH (5% RH from 90% RH to 95% RH).\nThe moisture sorption profile was generated at 25 °C using a DVS moisture balance flow system (Model Advantage 1.0) with the following conditions: sample size approximately 10 mg, drying 25 °C for 60 minutes, adsorption range 0% to 95% RH, desorption range 95% to 0% RH, and step interval 5%. The equilibrium criterion was <0.01% weight change in 5 minutes for a maximum of 120 minutes."}, "Diet induced obese mice": {"test_system": "Diet induced obese mice", "details": "cited from earlier work"}, "brown adipocytes": {"test_system": "brown adipocytes", "details": "via cAMP/protein kinase A signalling pathway; cited from earlier work"}},
  "note": "Like-named read-outs stand apart in the source and are kept apart here.",
  "data": [
    {"smiles": "O=c1[nH]cnc2c(CN3C[C@H](CO)[C@@H](O)C3)c[nH]c12", "note": "[Glutarate Type A]", "values": [
      {"measurement": "change in crystallinity on vacuum drying", "setting": "[1]; 70 °C", "value": "slight decrease"},
      {"measurement": "change in crystallinity on vacuum drying", "setting": "[1]; overnight, 50 °C", "value": "no change in crystallinity"},
      {"measurement": "change in crystallinity on vacuum drying", "setting": "[1]; overnight, RT", "value": "no change in crystallinity"},
      {"measurement": "Form change", "setting": "[2]; 2-week, 25 °C/60% RH", "value": "No"},
      {"measurement": "Form change", "setting": "[2]; 2-week, 40 °C/75% RH", "value": "No"},
      {"measurement": "Form change", "setting": "[2]; 2-week, 60 °C", "value": "No"},
      {"measurement": "Form change", "setting": "[2]; 10-day, 25 °C/60% RH", "value": "No"},
      {"measurement": "Form change", "setting": "[2]; 10-day, 40 °C/75% RH", "value": "No"},
      {"measurement": "Form change", "setting": "[2]; 10-day, 60 °C", "value": "No"},
      {"measurement": "solid-state properties and stability", "setting": "[3]", "value": "good solid-state properties and stability"},
      {"measurement": "solubility", "setting": "[4]; H2O", "value": "> 36000", "unit": "µg/mL"},
      {"measurement": "solubility", "setting": "[4]; organic solvent or mixture, 1,4-Dioxane", "value": "< 2000", "unit": "µg/mL"},
      {"measurement": "solubility", "setting": "[4]; organic solvent or mixture, 2-MeTHF", "value": "< 1900", "unit": "µg/mL"},
      {"measurement": "solubility", "setting": "[4]; organic solvent or mixture, ACN", "value": "< 1900", "unit": "µg/mL"},
      {"measurement": "solubility", "setting": "[4]; organic solvent or mixture, Acetone/H2O (9:1)", "value": "< 1900", "unit": "µg/mL"},
      {"measurement": "solubility", "setting": "[4]; organic solvent or mixture, Acetone", "value": "< 2100", "unit": "µg/mL"},
      {"measurement": "solubility", "setting": "[4]; organic solvent or mixture, CPME", "value": "< 1900", "unit": "µg/mL"},
      {"measurement": "solubility", "setting": "[4]; organic solvent or mixture, DCM/MeOH (1:1)", "value": "< 1900", "unit": "µg/mL"},
      {"measurement": "solubility", "setting": "[4]; organic solvent or mixture, DCM", "value": "< 1800", "unit": "µg/mL"},
      {"measurement": "solubility", "setting": "[4]; organic solvent or mixture, DMAc", "value": "2000 to 6500", "unit": "µg/mL"},
      {"measurement": "solubility", "setting": "[4]; organic solvent or mixture, DMF", "value": "2300 to 7600", "unit": "µg/mL"},
      {"measurement": "solubility", "setting": "[4]; organic solvent or mixture, DMSO", "value": "> 39600", "unit": "µg/mL"},
      {"measurement": "solubility", "setting": "[4]; organic solvent or mixture, EtOAc", "value": "< 2100", "unit": "µg/mL"},
      {"measurement": "solubility", "setting": "[4]; organic solvent or mixture, EtOH/H2O (2:1)", "value": "22600 to 45200", "unit": "µg/mL"},
      {"measurement": "solubility", "setting": "[4]; organic solvent or mixture, EtOH/H2O (4:1)", "value": "2100 to 6900", "unit": "µg/mL"},
      {"measurement": "solubility", "setting": "[4]; organic solvent or mixture, EtOH/H2O (9:1)", "value": "< 2000", "unit": "µg/mL"},
      {"measurement": "solubility", "setting": "[4]; organic solvent or mixture, EtOH", "value": "< 2100", "unit": "µg/mL"},
      {"measurement": "solubility", "setting": "[4]; organic solvent or mixture, IPA", "value": "< 1800", "unit": "µg/mL"},
      {"measurement": "solubility", "setting": "[4]; organic solvent or mixture, IPAc", "value": "< 2000", "unit": "µg/mL"},
      {"measurement": "solubility", "setting": "[4]; organic solvent or mixture, MEK", "value": "< 1900", "unit": "µg/mL"},
      {"measurement": "solubility", "setting": "[4]; organic solvent or mixture, MIBK", "value": "< 1800", "unit": "µg/mL"},
      {"measurement": "solubility", "setting": "[4]; organic solvent or mixture, MTBE", "value": "< 2000", "unit": "µg/mL"},
      {"measurement": "solubility", "setting": "[4]; organic solvent or mixture, MeOH", "value": "1900 to 6500", "unit": "µg/mL"},
      {"measurement": "solubility", "setting": "[4]; organic solvent or mixture, NMP", "value": "1900 to 6300", "unit": "µg/mL"},
      {"measurement": "solubility", "setting": "[4]; organic solvent or mixture, THF/H2O (9:1)", "value": "< 2000", "unit": "µg/mL"},
      {"measurement": "solubility", "setting": "[4]; organic solvent or mixture, THF", "value": "< 2000", "unit": "µg/mL"},
      {"measurement": "solubility", "setting": "[4]; organic solvent or mixture, Toluene", "value": "< 1900", "unit": "µg/mL"},
      {"measurement": "solubility", "setting": "[4]; organic solvent or mixture, n-Heptane", "value": "< 2000", "unit": "µg/mL"},
      {"measurement": "solubility kinetic at 24 h", "setting": "[5]; FaSSIF", "value": "> 16.8", "unit": "mg/mL"},
      {"measurement": "solubility kinetic at 24 h", "setting": "[5]; FeSSIF", "value": "> 16.8", "unit": "mg/mL"},
      {"measurement": "solubility kinetic at 24 h", "setting": "[5]; SGF", "value": "> 16.8", "unit": "mg/mL"},
      {"measurement": "solubility kinetic at 24 h", "setting": "[5]; water", "value": "> 16.8", "unit": "mg/mL"},
      {"measurement": "remaining at 336 h", "setting": "[6]; 25 °C/60% RH", "value": 97.8, "unit": "%"},
      {"measurement": "remaining at 336 h", "setting": "[6]; 40 °C/75% RH", "value": 97.7, "unit": "%"},
      {"measurement": "remaining at 336 h", "setting": "[6]; 60 °C", "value": 97.3, "unit": "%"},
      {"measurement": "remaining at 240 h", "setting": "[6]; 25 °C/60% RH", "value": 97.7, "unit": "%"},
      {"measurement": "remaining at 240 h", "setting": "[6]; 40 °C/75% RH", "value": 97.8, "unit": "%"},
      {"measurement": "remaining at 240 h", "setting": "[6]; 60 °C", "value": 97.6, "unit": "%"},
      {"measurement": "Initial purity", "setting": "[6]; initial", "value": 97.9, "unit": "area %"},
      {"measurement": "water uptake", "setting": "[7]; 25 °C/80% RH", "value": 1.1, "unit": "%"},
      {"measurement": "hygroscopicity", "setting": "[7]; 25 °C/80% RH, in words", "value": "slightly hygroscopic"},
      {"measurement": "water uptake", "setting": "[7]; 25 °C/95% RH", "value": 10.4, "unit": "%"},
      {"measurement": "form change after DVS", "setting": "[7]; XRPD after DVS", "value": "no form change"}
    ]},
    {"smiles": "OC[C@H]1O[C@@H](n2cnc3c(O)ncnc32)[C@H](O)[C@@H]1O", "note": "[inosine]", "values": [
      {"measurement": "weight", "setting": "Diet induced obese mice; diet induced obese mice, daily for 26 days, vs vehicle", "value": "significant reduction in weight"},
      {"measurement": "BAT dependent energy expenditure", "setting": "Diet induced obese mice; mice", "value": "increased BAT dependent energy expenditure"},
      {"measurement": "browning of white adipose tissue", "setting": "Diet induced obese mice; mice", "value": "induced browning of white adipose tissue"},
      {"measurement": "energy expenditure in brown adipocytes", "setting": "brown adipocytes", "value": "stimulates energy expenditure"}
    ]}
  ]
}
